Measured values published in patent US20230241196A1, “GONORRHEA SUBUNIT VACCINE” (priority 2020, published 2023).
Converted amounts (≈) assume the structure as drawn. Marks after values point to notes of the source that are not given here.

Columns and labels:
WT FA1090 = experiment: Etest antibiotic susceptibility, WT strain; type: cell-based, Neisseria gonorrhoeae; conditions: ~22 h, MIC repeated at least twice of three, unit assumed
Procedure: The henotypes associated with deletion of metQ were explored. […] It was first examined whether complete elimination of MetQ affects cell envelope homeostasis by exposing bacteria to seven antibiotics with different mechanisms of action using Etest assays.
(§1) Briefly, non-piliated colonies of each strain were suspended in GCBL to a turbidity equivalent to that of a 0.5 McFarland standard and spread on 150 mm tissue culture dishes filled with 50 mL GCB to a thickness of 4 mm. Etest strips were placed on the agar surface and plates were cultured for ~22 h, at which point the MICs were determined. Sensitivity assessments were performed three times, and MIC values that repeated at least twice are reported.

[1] = test system: isogenic knockout ΔmetQ (FA1090); experiment: Etest antibiotic susceptibility, ΔmetQ knockout; type: cell-based, Neisseria gonorrhoeae; conditions: ~22 h, MIC repeated at least twice of three, unit assumed
Source text: (§2) Prokaryotic lipoproteins play versatile functions ranging from cell envelope stability to nutrient acquisition, substrate binding for ABC transporter systems, modulation of the host immune system, signal transduction, and virulence (Kovacs-Simon et al.Infect Immun 79, 548-561 (2011); Hayashi and Wu, PLoS pathogens 14, e1007081 (2018)). […] The henotypes associated with deletion of metQ were explored. A null mutant in ngo2139 ΔmetQ) and its complemented mutant ΔmetQ/Plac::metQ in Ng FA1090 were constructed (Zielke et al., Mol Cell Proteomics 15, 2338-2355 (2016)). It was first examined whether complete elimination of MetQ affects cell envelope homeostasis by exposing bacteria to seven antibiotics with different mechanisms of action using Etest assays.
as §1, with “Etest antimicrobial sensitivity assessments: The susceptibility of WT FA1090, isogenic knockout ΔmetQ, and complementation strain ΔmetQ/Plac: :metQ to seven antimicrobial compounds was assessed by Etests as previously (Zielke et al., PLoS pathogens 14, e1007081 (2018)), according to manufacturer’s instructions. Briefly,” for “Briefly,”

[2] = test system: complementation strain ΔmetQ/Plac::metQ (FA1090); experiment: Etest antibiotic susceptibility, complementation strain; type: cell-based, Neisseria gonorrhoeae; conditions: ~22 h, MIC repeated at least twice of three
Source text: as §2
as §1, with “Etest antimicrobial sensitivity assessments: The susceptibility of WT FA1090, isogenic knockout ΔmetQ, and complementation strain ΔmetQ/Plac: :metQ to seven antimicrobial compounds was assessed by Etests as previously (Zielke et al., PLoS pathogens 14, e1007081 (2018)), according to manufacturer’s instructions. Briefly,” for “Briefly,”

rMetQ = experiment: Pilot immunogenicity: immunoblot of rMetQ with serum of immunized mice; type: in vivo, Neisseria gonorrhoeae; conditions: BALB/c mice, groups of 5; subcutaneous prime, three intranasal boosts
Procedure: First, the immunogenicity of rMetQ was tested by immunizing groups of 5 BALB/c mice with rMetQ, rMetQ-CpG, CpG, or PBS using a subcutaneous prime immunization, followed by a regimen of three intranasal boost doses. A robust, single protein band corresponding to the molecular weight of rMetQ (~30 kDa) was detected in immunoblots with serum derived from mice immunized with rMetQ alone. […] Based on these encouraging results, large-scale immunization/challenge experiments were performed. […] Vaginal washes were collected after the second boost, and antigen-specific antibody titers were assessed in serum collected 14 days after the third boost. […] Bacterial clearance was assessed by enumerating Ng CFUs present in vaginal washes on days 1, 3, 5, and 7 post-infection (FIG. 3C). […]
Densitometry analysis: The expression of MetQ during WT FA1090 infection in female BALB/c mice and intensities of protein bands detected in serum specificity studies were determined by densitometry using FIJI software (Schindelin et al., Nature methods 9, 676-682 (2012)). The amount of MetQ on day 1 post-infection was arbitrarily set to 1 and the protein abundance on days 3 and 5 is expressed relative to the MetQ cellular pool detected on day 1.

Question: Which MIC (Etest) (WT FA1090) does the source give for `CN[C@H](CC(C)C)C(=O)N[C@H]1C(=O)N[C@@H](CC(N)=O)C(=O)N[C@H]2C(=O)N[C@H]3C(=O)N[C@H](C(=O)N[C@H](C(=O)O)c4cc(O)cc(O)c4-c4cc3ccc4O)[C@H](O)c3ccc(c(Cl)c3)Oc3cc2cc(c3O[C@@H]2O[C@H](CO)[C@@H](O)[C@H](O)[C@H]2O[C@H]2C[C@](C)(N)[C@H](O)[C@H](C)O2)Oc2ccc(cc2Cl)[C@H]1O` [Vancomycin] here?
Answer: 8 µg/mL (≈ 5.52 µM)

Question: And the MIC (Etest) [1]?
Answer: 8 µg/mL (≈ 5.52 µM)

Question: What about the MIC (Etest) ([2]; unit assumed) of the same molecule?
Answer: 8 µg/mL (≈ 5.52 µM)

Question: What does the source list for `CC[C@H]1OC(=O)[C@H](C)[C@@H](O[C@H]2C[C@@](C)(OC)[C@@H](O)[C@H](C)O2)[C@H](C)[C@@H](O[C@@H]2O[C@H](C)C[C@H](N(C)C)[C@H]2O)[C@](C)(O)C[C@@H](C)CN(C)[C@H](C)[C@@H](O)[C@]1(C)O` [Azithromycin]?
Answer: MIC (Etest) (WT FA1090): 0.032 µg/mL (≈ 0.0427 µM); MIC (Etest) [1]: 0.032 µg/mL (≈ 0.0427 µM); MIC (Etest) [2]: 0.5^b

Question: With `CC1(C)S[C@@H]2[C@H](NC(=O)Cc3ccccc3)C(=O)N2[C@H]1C(=O)O` [Benzylpenicillin] as the molecule, how does the MIC (Etest) (WT FA1090) read?
Answer: 0.064 µg/mL (≈ 0.191 µM)

Question: What about the MIC (Etest) [1] of the same molecule?
Answer: 0.064 µg/mL (≈ 0.191 µM)

Question: What about the MIC (Etest) ([2]; unit assumed) of the same molecule?
Answer: 0.064 µg/mL (≈ 0.191 µM)

Question: With Polymyxin B as the molecule, how does the MIC (Etest) (WT FA1090) read?
Answer: 64 µg/mL

Question: What about the MIC (Etest) [1] of the same molecule?
Answer: 64 µg/mL

Question: And the MIC (Etest) ([2]; unit assumed)?
Answer: 64 µg/mL

Question: Which MIC (Etest) (WT FA1090) does the source give for `CO/N=C(\C(=O)N[C@@H]1C(=O)N2C(C(=O)O)=C(COC(C)=O)CS[C@H]12)c1csc(N)n1` [Cefotaxime] here?
Answer: 0.004 µg/mL (≈ 0.00878 µM)

Question: And the MIC (Etest) [1]?
Answer: 0.004 µg/mL (≈ 0.00878 µM)

Question: And the MIC (Etest) ([2]; unit assumed)?
Answer: 0.008 µg/mL (≈ 0.0176 µM)

B1: rMetQ: untagged recombinant N. gonorrhoeae FA1090 MetQ lacking the lipoprotein signal peptide; sequence in FIG. 8 (SEQ ID NO: 4) (protein, listed as Neisseria gonorrhoeae)
chain: GAMEKDSAPAASAAAPSADNGAAKKEIVFGTTVGDFGDMVKEQIQAELEKKGYTVKLVEFTDYVRPNLALAEGELDINVFQHKPYLDDFKKEHNLDITEAFQVPTAPLGLYPGKLKSLEEVKDGSTVSAPNDPSNFARALVMLNELGWIKLKDGINPLTASKADIAENLKNIKIVELEAAQLPRSRADVDFAVVNGNYAISSGMKLTEALFQEPSFAYVNWSAVKTADKDSQWLKDVTEAYNSDAFKAYAHKRFEGYKYPAAWNEGAAKKLAAA
Question: With B1 as the molecule, how does the “Immunoblot intensity of rMetQ band probed with serum” value (rMetQ) read?
Answer: 44,405 relative intensity units
